Experimental data taken from the supplement of paper PMC10307832.

Legend:
Experiment in all cases: relative viability (nuclei count vs DMSO), 5 days (fraction); higher = more cells survive
[1] = compound: CC1=NN=C(O1)C2=NN=C(C=C2)N3CCC(CC3)OC4=C(C=CC(=C4)F)Cl + Cc1nc(Nc2ncc(C(=O)Nc3c(C)cccc3Cl)s2)cc(N2CCN(CCO)CC2)n1 [Dasatinib] (partner 0.075 µM)
Outline: (§1)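 One day after seeding in 1536-well plates, lung cancer cell lines were dosed by pin tool. Dosing was either single-drug or a fixed anchor-drug dose plus five library-drug doses (not always all listed) in √10 steps. After 5 days, nuclei were stained in one fix-and-stain step and counted on 4× images, and relative viability is the nuclei count of treated wells over that of vehicle wells, given as the median of duplicate plates.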

Tosedostat + Decitabine = compound: CC(C)C[C@@H](C(=O)N[C@H](C(=O)OC1CCCC1)c1ccccc1)[C@H](O)C(=O)NO [Tosedostat] + Nc1ncn([C@H]2C[C@H](O)[C@@H](CO)O2)c(=O)n1 [Decitabine] (partner 2 µM)
Outline: as §1

[2] = compound: CC1=NN=C(O1)C2=NN=C(C=C2)N3CCC(CC3)OC4=C(C=CC(=C4)F)Cl + CCNC(=O)c1noc(-c2cc(C(C)C)c(O)cc2O)c1-c1ccc(CN2CCOCC2)cc1 [Luminespib] (partner 0.01 µM)
Outline: as §1

Tosedostat + Bortezomib = compound: CC(C)C[C@@H](C(=O)N[C@H](C(=O)OC1CCCC1)c1ccccc1)[C@H](O)C(=O)NO [Tosedostat] + CC(C)C[C@H](NC(=O)[C@H](Cc1ccccc1)NC(=O)c1cnccn1)B(O)O [Bortezomib] (partner 0.002 µM)
Outline: as §1

| Cell Line | relative viability ([1]; first compound 0.253 µM) | relative viability ([1]; first compound 0.8 µM) | relative viability ([1]; first compound 2.53 µM) | relative viability ([1]; first compound 8 µM) | relative viability (Tosedostat + Decitabine; first compound 0.02 µM) | relative viability (Tosedostat + Decitabine; first compound 0.06325 µM) | relative viability (Tosedostat + Decitabine; first compound 0.2 µM) | relative viability (Tosedostat + Decitabine; first compound 0.6325 µM) | relative viability (Tosedostat + Decitabine; first compound 2 µM) | relative viability ([2]; first compound 0.253 µM) | relative viability ([2]; first compound 0.8 µM) | relative viability ([2]; first compound 2.53 µM) | relative viability ([2]; first compound 8 µM) | relative viability (Tosedostat + Bortezomib; first compound 0.02 µM) | relative viability (Tosedostat + Bortezomib; first compound 0.06325 µM) | relative viability (Tosedostat + Bortezomib; first compound 0.2 µM) | relative viability (Tosedostat + Bortezomib; first compound 0.6325 µM) | relative viability (Tosedostat + Bortezomib; first compound 2 µM) |
| --- | --- | --- | --- | --- | --- | --- | --- | --- | --- | --- | --- | --- | --- | --- | --- | --- | --- | --- |
| NCI-H1437 | 0.584 | 0.279 | 0.418 | 0.268 | 0.537 | 0.569 | 0.58 | 0.566 | 0.564 | 0.654 | 0.6 | 0.598 | 0.546 | 0.465 | 0.512 | 0.488 | 0.524 | 0.324 |
| NCI-H1650 | – | 0.342 | 0.335 | 0.28 | 0.43 | 0.413 | 0.433 | 0.318 | 0.237 | – | 0.194 | 0.217 | 0.205 | 0.207 | 0.182 | 0.228 | 0.197 | 0.192 |
| NCI-H1651 | 0.406 | 0.394 | 0.335 | 0.374 | 0.683 | 0.63 | 0.501 | 0.523 | 0.503 | 0.738 | 0.749 | 0.685 | 0.692 | 0.973 | 1.03 | 0.834 | 0.834 | 0.914 |
| NCI-H1666 | 0.612 | 0.526 | 0.58 | 0.543 | 0.776 | 0.744 | 0.696 | 0.727 | 0.658 | 0.537 | 0.504 | 0.479 | 0.444 | 0.753 | 0.849 | 0.766 | 0.735 | 0.698 |
| NCI-H1734 | 0.496 | 0.417 | 0.477 | 0.401 | 0.487 | 0.509 | 0.461 | 0.418 | 0.446 | 0.237 | 0.206 | 0.249 | 0.189 | 1.07 | 0.942 | 0.907 | 0.89 | 0.786 |
| NCI-H1755 | 0.36 | 0.438 | 0.406 | 0.373 | 0.861 | 0.699 | 0.712 | 0.716 | 0.674 | 0.376 | 0.337 | 0.354 | 0.418 | 0.963 | 0.896 | 0.928 | 0.887 | 0.845 |
| NCI-H1792 | 0.578 | 0.714 | 0.78 | 0.707 | 0.62 | 0.506 | 0.52 | 0.465 | 0.525 | 0.34 | 0.38 | 0.419 | 0.431 | 1.01 | 0.991 | 0.934 | 0.952 | 1 |
| NCI-H1915 | 0.324 | 0.257 | 0.311 | 0.285 | 0.226 | 0.283 | 0.26 | 0.261 | 0.214 | 0.615 | 0.393 | 0.503 | 0.312 | 1.03 | 0.942 | 1.01 | 0.956 | 0.946 |
| NCI-H1975 | – | 0.361 | 0.581 | 0.546 | 0.396 | 0.425 | 0.4 | 0.274 | 0.407 | – | – | 0.224 | 0.196 | 0.427 | 0.454 | 0.36 | 0.347 | 0.304 |
